The term IC50 denotes the midpoint of a concentration-inhibition curve.

Read-outs that look alike come from different tables or passages of the source.

Data on 25 compounds can be found in patent publication US20110319362A1, “STAT3 LIGANDS AND THERAPEUTIC USES THEREOF” (priority 2008, published 2011).

The test system of experiment [1] is MDA-MB-231 cancer cell line. Description: Cell growth assay (WST-8). It counts as cell-based. To be noted: Homo sapiens, MDA-MB-231, 96 h; WST-8, 4 days; read-out: Inhibition of cell growth IC50, MDA-MB-231 cancer cell line. The method, then: (§1) The effect of STAT3 compounds on cell growth was evaluated by a WST-8 [2-(2-methoxy-4-nitrophenyl)-3-(4-nitrophenyl)-5-(2,4-disulfophenyl)-2H-tetrazolium, monosodium salt assay (Dojindo Molecular Technologies, Inc). Cells (3000-4000 cells in each well) were cultured in 96-well tissue culture plates in medium (200 μL) containing various concentrations of STAT3 compounds for 4 days. At the end of incubation, WST-8 dye (20 μL) was added to each well and incubated for an additional 1-3 h, and then the absorbance was measured in a microplate reader (Molecular Devices) at 450 nm. Cell growth inhibition was evaluated as the ratio of the absorbance of the sample to that of the control.
On the technique in general: Tetrazolium assays rely on reduction of a dye to a coloured formazan, in cell work by metabolically active cells.

Experiment [2] deals with MDA-MB-468 cancer cell line. Description: Cell growth assay (WST-8). It is filed as cell-based. To be noted: Homo sapiens, MDA-MB-468, 96 h; WST-8, 4 days; read-out: Inhibition of cell growth IC50, MDA-MB-468 cancer cell line. The method, then:
as §1

The target in experiment [3] is T1, STAT3 protein (Homo sapiens, UniProt P40763).
T1 construct: human STAT3 protein (residues 122-722) fused to His-tag; His-tag
T1 sequence (P40763 122-722): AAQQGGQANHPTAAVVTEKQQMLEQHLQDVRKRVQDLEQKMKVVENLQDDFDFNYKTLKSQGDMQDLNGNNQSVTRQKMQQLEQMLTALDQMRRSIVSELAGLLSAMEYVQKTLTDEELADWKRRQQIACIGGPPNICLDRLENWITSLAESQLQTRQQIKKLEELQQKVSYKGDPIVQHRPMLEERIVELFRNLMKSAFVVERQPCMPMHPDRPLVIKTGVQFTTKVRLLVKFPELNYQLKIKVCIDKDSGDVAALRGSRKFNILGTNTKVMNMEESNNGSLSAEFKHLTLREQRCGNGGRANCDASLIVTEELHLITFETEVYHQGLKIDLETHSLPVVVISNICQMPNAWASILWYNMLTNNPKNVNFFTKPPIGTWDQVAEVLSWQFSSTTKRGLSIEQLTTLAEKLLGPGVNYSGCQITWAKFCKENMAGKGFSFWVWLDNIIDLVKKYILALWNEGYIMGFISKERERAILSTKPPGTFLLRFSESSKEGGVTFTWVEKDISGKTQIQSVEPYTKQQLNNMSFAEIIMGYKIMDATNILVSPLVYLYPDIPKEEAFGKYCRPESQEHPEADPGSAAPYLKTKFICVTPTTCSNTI
Description: In vitro competitive STAT3 binding assay (fluorescence polarization). The text has this: To quantitatively determine the binding affinities of STAT3 inhibitors to STAT3 protein, a sensitive and quantitative in vitro binding assay was developed based upon fluorescence polarization (FP) method. For this FP assay, 5-carboxyfluorescein (5-Fam) was coupled to a phosphopeptide (phospho-Tyr-Leu-Pro-Gln-Thr-Val-amide) with two beta-alanine and one glycine residues as the spacer between 5-Fam and the phosphopeptide to obtain 5-Fam-beta-Ala-beta-Ala-Gly-phospho-Tyr-Leu-Pro-Gln-Thr-Val-amide as the fluorescently tagged tracer, which was named as STT2 peptide. […] The recombinant human STAT3 protein (residues 122-722) fused to His-tag was stable and soluble.
Competitive binding experiments were carried out using 150 nM of STAT3 protein and 5 nM of STT2 peptide with different concentrations of a tested STAT3 inhibitor. For each experiment, two controls were included. One control contained STAT3 protein and STT2 peptide, and the second control contained STT2 peptide only. The polarization values were measured after 2-3 hours of incubation using an ULTRA READER (Tecan U.S. Inc., Research Triangle Park, N.C.). IC50 values, the inhibitor concentration at which 50% of the fluorescently tagged STT2 peptide is displaced by STAT3 inhibitors, was determined from a plot using nonlinear least-squares analysis using GRAPHPAD PRISM software (GraphPad Software, Inc., San Diego, Calif.). […]
In general terms: In fluorescence polarisation assays a small probe gives low polarisation when free and higher when bound to something large.

Where [4] appears, read: FP competitive binding, fluorescently tagged STT2 peptide tracer, read-out: Binding affinities to STAT3 IC50.

Turning to `O=C(O)CCc1ccc(CCC(=O)N[C@H]2CCCC[C@H]3CC[C@@H](C(=O)NCC[C@H](O)CO)N3C2=O)cc1` [Example 4], the half-maximal inhibitory concentration (IC50) was > 30 µM in experiment [1], > 100 µM in experiment [2] and > 100 µM in experiment [3] (setting [4]).

As to `CCCCCCCCCCCCCCCCN1CCN(CCC(=O)N[C@@H](Cc2ccc(OP(=O)(O)O)cc2)C(=O)N[C@H]2CCCCC3CC[C@@H](C(=O)NCCCC(O)CO)N3C2=O)CC1` (stereo partly drawn), the half-maximal inhibitory concentration (IC50) is < 20 µM in experiment [1], < 20 µM in experiment [2] and < 10 µM in experiment [3] (setting [4]).

In the case of `CC(=O)N1CCC2CC[C@@H](C(=O)N[C@@H](CCC(N)=O)C(=O)NCc3ccccc3)N2C(=O)[C@@H](NC(=O)[C@@H](N)Cc2ccc(OP(=O)(O)O)cc2)C1` (stereo partly drawn), the IC50 was > 50 µM in experiment [1], > 100 µM in experiment [2] and < 5 µM in experiment [3] (setting [4]).

As to `NC(=O)CC[C@H](NC(=O)[C@@H]1CCC2CCCC[C@H](NC(=O)/C=C/c3ccc(OP(=O)(O)O)cc3)C(=O)N21)C(=O)NCc1ccccc1` (stereo partly drawn) [Example 56], the IC50 was > 100 µM in experiment [1], > 100 µM in experiment [2] and < 1 µM in experiment [3].

As for `CC(=O)NCCC[C@H](NC(=O)[C@@H]1CCC2CCCC[C@H](NC(=O)[C@H](Cc3ccc(OC(C(=O)O)C(=O)O)cc3)N(C)C)C(=O)N21)C(=O)NCc1ccccc1` (stereo partly drawn), the results for the IC50 in experiment [1], in experiment [2] and in experiment [3] (setting [4]) were > 100 µM, > 100 µM and > 10 µM, respectively.

Regarding `CNC(=O)CCCNC(=O)[C@@H]1CC[C@@H]2CCCC[C@H](NC(=O)[C@H](Cc3ccc(OP(=O)(O)O)cc3)NC(=O)OCc3ccccc3)C(=O)N21` [Example 17], the IC50 in experiment [1] was > 100 µM; in experiment [2], > 100 µM; in experiment [3] (setting [4]), < 30 µM.

Consider `CN(C)[C@@H](Cc1ccc(OP(=O)(O)O)cc1)C(=O)N[C@H]1CCCCC2CC[C@@H](C(=O)N[C@@H](CCC(N)=O)C(=O)NCc3ccccc3)N2C1=O` (stereo in doubt) [Example 36], for which the figures for the concentration for half-maximal inhibition (IC50) in experiment [1], in experiment [2] and in experiment [3] (setting [4]) were > 100 µM, > 100 µM and < 5 µM, respectively.

As to `NC(=O)CC[C@H](NC(=O)[C@@H]1CC[C@@H]2CCCC[C@H](NC(=O)[C@H](Cc3ccc(OP(=O)(O)O)cc3)NC(=O)CCc3ccccc3)C(=O)N21)C(=O)NCc1ccccc1` [Example 2], the IC50 in experiment [1] is > 20 µM; in experiment [2], > 100 µM; in experiment [3], < 1 µM.

On to `O=C(CC[C@H](NC(=O)[C@@H]1CCC2CCCC[C@H](NC(=O)[C@H](Cc3ccc(OP(=O)(O)O)cc3)NC(=O)OCc3ccccc3)C(=O)N21)C(=O)NCc1ccccc1)NC(c1ccccc1)(c1ccccc1)c1ccccc1` (stereo partly drawn), for which the IC50 in experiment [1] is < 50 µM; in experiment [2], < 50 µM; in experiment [3], < 20 µM.

As for `NC(=O)CC[C@H](NC(=O)[C@@H]1CC[C@@H]2CCCC[C@H](NC(=O)[C@@H](N)Cc3ccc(CP(=O)(O)O)cc3)C(=O)N21)C(=O)NCc1ccccc1` [Example 29], the half-maximal inhibitory concentration (IC50) is > 100 µM in experiment [1], > 100 µM in experiment [2] and < 30 µM in experiment [3].

Take `CCCCCCCCCCCCCCCCN1CCN(CCC(=O)N[C@@H](Cc2ccc(OP(=O)(O)O)cc2)C(=O)N[C@H]2CCCCC3CC[C@@H](C(=O)NCCN4CCNC4=O)N3C2=O)CC1` (stereo partly drawn): the results for the IC50 in experiment [1], in experiment [2] and in experiment [3] (setting [4]) were < 30 µM, < 20 µM and < 5 µM, respectively.

For the compound `CCCCCCCCCCCCCCCCN1CCN(CCC(=O)N[C@@H](Cc2ccc(OP(=O)(O)O)cc2)C(=O)N[C@H]2CCCCC3CC[C@@H](C(=O)N[C@@H](CCC(N)=O)C(=O)NCc4ccccc4)N3C2=O)CC1` (stereo partly drawn), the IC50 in experiment [1] is < 10 µM; in experiment [2], < 10 µM; in experiment [3] (setting [4]) it was < 1 µM.

As to `NC(=O)CC[C@H](NC(=O)[C@@H]1CC[C@@H]2CCCC[C@H](NC(=O)CCc3ccc(O)c(C(=O)O)c3)C(=O)N21)C(=O)NCc1ccccc1` [Example 24], the IC50 in experiment [1], in experiment [2] and in experiment [3] (setting [4]) was > 100 µM each time.

For `CCCCCCCCCCCCCCCC(=O)N[C@@H](Cc1ccc(OP(=O)(O)O)cc1)C(=O)NC1CCCC[C@H]2CC[C@@H](C(=O)N[C@@H](CCC(N)=O)C(=O)NCc3ccccc3)N2C1=O` (stereo partly drawn) [Example 37], the IC50 is < 50 µM in experiment [1], < 50 µM in experiment [2] and < 10 µM in experiment [3].

Take `CCCCCCCCCCCCNC(=O)[C@H](CCC(N)=O)NC(=O)[C@@H]1CCC2CCCC[C@H](NC(=O)[C@H](Cc3ccc(OP(=O)(O)O)cc3)NC)C(=O)N21` (stereo partly drawn): the IC50 is < 30 µM in experiment [1], < 20 µM in experiment [2] and < 5 µM in experiment [3] (setting [4]).

Regarding `CNC(=O)[C@H](CCC(N)=O)NC(=O)[C@@H]1CC[C@@H]2CCCC[C@H](NC(=O)[C@H](Cc3ccc(OP(=O)(O)O)cc3)NC(=O)OCc3ccccc3)C(=O)N21` [Example 13], the IC50 in experiment [1] is > 100 µM; in experiment [2], > 100 µM; in experiment [3], < 1 µM.

Turning to `O=C(N[C@@H](Cc1ccc(OP(=O)(O)O)cc1)C(=O)N[C@H]1CCCC[C@H]2CC[C@@H](C(=O)N[C@@H](Cc3c[nH]cn3)C(=O)NCc3ccccc3)N2C1=O)OCc1ccccc1` [Example 22], the concentration for half-maximal inhibition (IC50) was > 50 µM in experiment [1], > 100 µM in experiment [2] and < 10 µM in experiment [3].

As for `CC(C)(C)OC(=O)CCc1ccc(CCC(=O)N[C@H]2CCCC[C@H]3CC[C@@H](C(=O)NCC[C@H](O)CO)N3C2=O)cc1` [Example 3], the half-maximal inhibitory concentration (IC50) was > 30 µM in experiment [1], > 100 µM in experiment [2] and > 100 µM in experiment [3] (setting [4]).

Take `NC(=O)CC[C@H](NC(=O)[C@@H]1CCC2CCCC[C@H](NC(=O)[C@H](Cc3ccc(OP(=O)(O)O)cc3)NC(=O)OCc3ccccc3)C(=O)N21)C(=O)NCc1ccccc1` (stereo in doubt) [Example 41]: the half-inhibitory concentration (IC50) in experiment [1] is > 50 µM; in experiment [2], > 100 µM; in experiment [3], < 1 µM.

On to `NCCC[C@H](NC(=O)[C@@H]1CC[C@@H]2CCCC[C@H](NC(=O)[C@H](Cc3ccc(OP(=O)(O)O)cc3)NC(=O)OCc3ccccc3)C(=O)N21)C(=O)NCc1ccccc1` [Example 20], for which the results for the 50% inhibitory concentration (IC50) in experiment [1], in experiment [2] and in experiment [3] were > 50 µM, > 100 µM and < 10 µM, respectively.

Consider `CN[C@@H](Cc1ccc(OP(=O)(O)O)cc1)C(=O)N[C@H]1CCCCC2CC[C@@H](C(=O)N[C@@H](Cc3c[nH]cn3)C(=O)NCc3ccccc3)N2C1=O` (stereo partly drawn), for which the IC50 in experiment [1] was > 50 µM; in experiment [2], > 100 µM; in experiment [3] (setting [4]), < 30 µM.

Turning to `CP(=O)(O)Cc1ccc(CCC(=O)N[C@H]2CCCCC3CC[C@@H](C(=O)N[C@@H](CCC(N)=O)C(=O)NCc4ccccc4)N3C2=O)cc1` (stereo partly drawn), the IC50 in experiment [1], in experiment [2] and in experiment [3] (setting [4]) was > 100 µM throughout.

With `O=C(N[C@@H](Cc1ccc(OP(=O)(O)O)cc1)C(=O)N[C@H]1CCCC[C@H]2CC[C@@H](Cn3cc(-c4ccccc4)nn3)N2C1=O)OCc1ccccc1` [Example 9], the IC50 in experiment [1] is > 5 µM; in experiment [2] it was > 5 µM; in experiment [3] (setting [4]), > 20 µM.

`O=C(CCc1ccccc1)N[C@@H](Cc1ccc(OP(=O)(O)O)cc1)C(=O)N[C@H]1CCCCC2CC[C@@H](C(=O)N[C@@H](CCC(=O)NC(c3ccccc3)(c3ccccc3)c3ccccc3)C(=O)NCc3ccccc3)N2C1=O` (stereo partly drawn): the IC50 in experiment [1] is > 100 µM; in experiment [2] it was > 50 µM; in experiment [3] (setting [4]), < 20 µM.

With `CN(C)[C@@H](Cc1ccc(OC(C(=O)O)C(=O)O)cc1)C(=O)N[C@H]1CCCCC2CC[C@@H](C(=O)N[C@@H](Cc3c[nH]cn3)C(=O)NCc3ccccc3)N2C1=O` (stereo partly drawn), the IC50 in experiment [1] is > 100 µM; in experiment [2], > 100 µM; in experiment [3] (setting [4]), > 10 µM.
